# Source: patent publication US10093712B2, “Immunostimulatory compositions and uses thereof” (Susavion Biosciences, Inc., priority 2004, dated 2018)
# Like-named read-outs stand apart in the source and are kept apart here. Where no end group is shown, it is not given here.
# Tests used:
# [1] = pH 7.4
# Source text: The product was dried and then dissolved in sterile phosphate buffered saline, pH 7.4.
# [2] = tested on: adherent macrophages or neutrophils from canine peripheral blood; assay: Phagocytosis of fluorescent polystyrene beads; assay type: cell-based; conditions: 3.4 nM (25 ng/ml)
# Procedure: (§1) Phagocytosis: Phagocytosis was measured by the uptake of fluorescently-labeled bacterial cells (Molecular Probes, Inc.) or fluorescent polystyrene beads (Polyscience, Inc). Phagocytosis can be quantitated by quenching extracellular (unphagocytized) bacterial cells by addition of the dye trypan blue to the suspension and measuring the remaining (intracellular) fluorescence (Wan et al., 1993).
# Phagocytosis of polystyrene beads: Peripheral blood from the canines was added to confocal dishes and incubated over night to allow macrophage adherence. The cells were washed away with PBS, HBSS, or RPMI. Only adherent macrophages or neutrophils remained on the glass surface and were left to incubate in the above mentioned buffers. Polypeptide was then added at 3.4 nM (25 ng/ml) for a 5-hour incubation. At this point, beads were added for a 10-minute incubation. All incubations were done in 37° C. with 5% CO2.
# [3] = tested on: recurring, advanced cancer; conditions: for quality of life: canine cancer patients, subjective; for tumor load / size of the primary tumor: several patients / some cases
# Procedure: Owners of dogs that were used to obtain preliminary data were required to sign informed consent and agreement to necropsy forms. Dogs with histologically or cytologically confirmed cancer were given the polypeptide mimetic at doses of 100 to 1,500µg by weekly perfusion into the blood or subcutaneously 3 times per week. The effective dose of the glycopeptide used by Schneider et al. (2003) was 0.4 ng/g body weight given every other day. On this basis, a minimal weekly dose should be 1.4 ng/g body weight. For a large animal (80 lb or 36 kg dog), the starting, minimal-effective, weekly dose of the synthetic mimetic polypeptide would therefore be 50µg or 6.8 nmoles. For initial studies, the mimetic polypeptide (FIG. 4) was administered at a 20-fold higher dose.
# [4] = tested on: adherent peripheral blood cells; assay: Oxidative burst of adherent peripheral blood cells, change in absorbance of cytochrome c after PMA; assay type: cell-based
# Procedure: FIG. 7. Response of adherent peripheral blood cells to mimetic peptides. Reduction of cytochrome c by superoxide anion radical is indicated by an increase in absorbance (OD), whereas a loss of absorbance indicates destruction of the cytochrome. (A) Total adherent cells from 300 μl of blood were assayed. Samples 1 and 2 contained 5 nM and 2.5 nM branched mimetic peptide, respectively. Samples 3 and 4 contained 5 nM and 2.5 nM linear mimetic peptide, respectively. Sample 5 contained 50 ng/ml lipopolysaccharide (weight equivalent to 6 nM peptide). Sample 6, untreated control cells. (B) Adherent cells were scraped from the surface and 1×10^5 cells were placed in each well. The assay was performed as in (A). Samples 1 and 2 contained 10 nM and 5 nM mimetic peptide, respectively. Samples 3 and 4 contained 10 nM and 5 nM linear peptide, respectively. Sample 5 contained 50 ng/ml lipopolysaccharide. Sample 6, untreated control cells.
# (§2) Oxidative burst: Peripheral blood samples were removed from animals and 300 μl added to wells of a 96-well microtiter plate and incubated overnight at 38° C. in a standard CO2-incubator. The nonadherent cells, including erythrocytes, and serum were removed and centrifuged to pellet cells and obtain cell-free serum. RPMI 1640 medium containing 2 to 10% serum from the same animal were added to each well and incubation of the culture is continued for various periods of time. The polypeptide mimetic was then added to a concentration of 1 to 10 nM and incubation continued for 3 h.
# One type of assay of cellular activity measures the response of adherent cells to the polypeptide mimetic by the change in absorbance of cytochrome c (Johnston et al., 1978; Pick and Mizel, 1981). Phorbol 12-myristate 13-acetate (PMA) was added to 140 nM and then cytochrome c was added to 15 μM. Change in absorbance was monitored continuously at 550 nm over 20 min. With 300 μl in each well, reduction of cytochrome c was calculated as: Δnanomoles=absorbance at 550 nm×100/2.1 (Pick and Mizel, 1981). Positive control samples were run with lipopolysaccharide, a known stimulator of macrophage activity. Negative controls lack stimulant.
# The oxidative burst upon addition of PMA involves production of the superoxide anion radical. The superoxide anion radical is a strong reducing agent and reduces cytochrome c, which is detected by an increase in absorbance of the sample. Additionally, these cells produce the nitric oxide radical, which reacts with superoxide anion radical at diffusion-limited rates to produce the strong oxidant, peroxynitrite anion (Ischiropoulos et al., 1992). These strong oxidants apparently cause loss of absorbance of the cytochrome.
# Without treatment with the polypeptide, again no change in absorbance of the cytochrome was detected.
# [5] = tested on: canine peripheral blood macrophages; assay: Phagocytosis of fluorescently labeled bacterial cells, trypan blue quench, microscopy; assay type: cell-based; conditions: for phagocytosis of bacterial cells: then bacterial cells 10 minutes
# Procedure: FIG. 9. Microscopic analysis of phagocytosis of fluorescently labeled bacterial cells by adherent cells from canine peripheral blood samples. […] The sample was treated 15 h with 5 nM branched peptide mimetic and then incubated with fluorescently-labeled bacterial cells for 10 min. Fluorescence of bacterial cells that remained extracellular was quenched with trypan blue. […] The samples were not treated with the peptide mimetic, and most of the cells, as in (D) were not fluorescent. A very low level of fluorescence, evidence of low phagocytic activity, was occasionally seen, as shown in (C). Gain was set to maximize detection of fluorescence. Such control samples show the highest level of phagocytosis of bacterial that we have observed. In many experiments, control cells show no fluorescence.
# as §1
# In one experiment, canine peripheral blood macrophages were treated for 15 hours with 5 nM branched polypeptide (FIG. 4), and then incubated with bacterial cells for 10 minutes, followed by microscopic analysis. Fluorescence of bacterial cells that remained extracellular was quenched with trypan blue. […] (See FIG. 9)
# In another experiment, adherent canine peripheral blood cells were treated for 5 hours with 10 nM branched polypeptide (FIG. 4) and then washed. Fluorescent bacterial cells were added, and after 10 minutes, trypan blue was added to quench extracellular bacterial cells. Cells were examined by light microscopy and then by fluorescent microscopy. Contrast in the fluorescent images was maximized to detect any fluorescence in control samples. […] Treated and control samples were from the same dog.
# [6] = tested on: peripheral blood adherent cells; assay: Pyrogallol oxidation initiated by superoxide anion radical from peripheral blood adherent cells; assay type: cell-based; conditions: 3.4, 1.7 or 0.7 nM versus 50 ng/ml lipopolysaccharide, FIG. 8
# Procedure: FIG. 8. Assay of pyrogallol oxidation initiated by superoxide anion radical generation by peripheral blood adherent cells treated with stimulants. Samples 1, 2, and 3, contained 3.4, 1.7 or 0.7 nM (25, 12.5 or 5 ng/ml) of the branched mimetic, respectively. Sample 4 contained 50 ng/ml lipopolysaccharide. Sample 5, untreated control cells.
# as §2
# The response of cells to the polypeptide was also assayed by oxidation of pyrogallol (Marldund and Marklund, 1974) in a reaction initiated by superoxide anion radical (FIG. 8).
substance,measurement,setting,value
"[(VQATQSNQHTPRGGGS)2K]2K.beta.AC (not fully specified (C-terminus); printed as [(VQATQSNQHTPRGGGS)2K]2K.beta.AC; also: four-branch lysine core [(seq)2K]2K, betaAla-Cys on core) [branched polypeptide mimetic]",stability of the product,[1],at least 3 months
same,detachment of neutrophils from the surface,[2],induced detachment of neutrophils from the surface
same,phagocytosis of polystyrene beads,"[2]; 5-hour incubation, 10 to 30 minutes after bead addition",presence of the beads within cells
same,quality of life,[3]; listed as branched peptide mimetic,dramatic improvement in quality of life
same,quality of life,[3]; listed as polypeptide,remarkable extension and improvement in the quality of life
same,quality of life,[3]; listed as polypeptide mimetic,dramatically enhanced
same,survival on the treatment,"[3]; several animals, advanced cancer",≥ 6 months
same,extension of life,[3]; several canine patients with advanced cancer,extension of life beyond what would be normally expected
same,behavior,[3]; several patients,restored to pre-disease activities
same,tumor load / size of the primary tumor,[3]; listed as polypeptide,reduction in size of the primary tumor
same,tumor load / size of the primary tumor,[3]; listed as polypeptide mimetic,reduction in tumor load was detected
same,oxidative burst response compared with linear polypeptide,[4]; FIG. 7,stronger response than the linear polypeptide
same,change in absorbance of cytochrome c,"[4]; higher concentrations of polypeptide (5 to 10 nM), FIG. 7A",rapid loss of absorbance
same,change in absorbance of cytochrome c,"[4]; low concentrations of mimetic polypeptide (1 nM), PMA 140 nM, cytochrome c 15 μM, 550 nm",increase in absorbance of cytochrome c
same,rate of reduction of cytochrome c,"[4]; lowered cell number (1×10^5 cells per well), FIG. 7B",correlated with the amount of polypeptide mimetic added
same,oxidative burst response compared with lipopolysaccharide,[4]; on an equal weight basis,even stronger than to lipopolysaccharide
same,phagocytosis of bacterial cells,[5]; 5 nM for 15 hours,dramatically increased phagocytosis
same,attachment of neutrophils,[5]; 10 nM for 5 hours,more of the smaller neutrophils become attached
same,phagocytosis of bacterial cells,[5]; 10 nM for 5 hours,dramatically increased phagocytosis
same,"oxidation of pyrogallol, activity as stimulant",[6],most active stimulant
lipopolysaccharide [reference compound],change in absorbance of cytochrome c,[4]; lipopolysaccharide positive control,increase in absorbance of cytochrome c
